{"source": "patent US8802597B2", "about": "“Herbicidal pyrimidines” (E I du Pont de Nemours and Company, priority 2003, dated 2014)", "type_in_all_cases": "in vivo", "key": {"[1]": {"system": "wheat (Triticum aestivum)", "assay": "Test B pre/postemergence", "conditions": "Triticum aestivum; for plant injury at 62 g/ha: 62 g ai/ha; for plant injury at 250 g/ha: 250 g ai/ha", "method_in_brief": "(§1)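 Visual injury scored 0 (no effect) to 100 (complete control) versus untreated controls after 13 to 15 days in greenhouse. Treatments were pre- or postemergence sprays of surfactant-containing solvent formulations; postemergence plants at 1- to 4-leaf stage, 2 to 18 cm.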"}, "[2]": {"system": "Surinam grass (Brachiaria decumbens)", "assay": "Test B pre/postemergence", "conditions": "Urochloa decumbens; for pest or weed control at 62 g/ha: 62 g ai/ha; for pest or weed control at 250 g/ha: 250 g ai/ha", "method_in_brief": "as §1"}, "[3]": {"system": "velvetleaf (Abutilon theophrasti)", "assay": "Test B pre/postemergence", "conditions": "Abutilon theophrasti; for pest or weed control at 62 g/ha: 62 g ai/ha; for pest or weed control at 250 g/ha: 250 g ai/ha", "method_in_brief": "as §1"}, "[4]": {"system": "morningglory (Ipomoea coccinea)", "assay": "Test B pre/postemergence", "conditions": "Ipomoea; for pest or weed control at 62 g/ha: 62 g ai/ha; for pest or weed control at 250 g/ha: 250 g ai/ha", "method_in_brief": "as §1"}, "[5]": {"system": "lambsquarters (Chenopodium album)", "assay": "Test B pre/postemergence", "conditions": "Chenopodium album, post-emergence, Postemergence", "method_in_brief": "as §1"}, "[6]": {"system": "cocklebur (Xanthium strumarium)", "assay": "Test B pre/postemergence", "conditions": "Xanthium strumarium; for pest or weed control at 62 g/ha: 62 g ai/ha; for pest or weed control at 250 g/ha: 250 g ai/ha", "method_in_brief": "as §1"}, "[7]": {"system": "crabgrass (Digitaria sanguinalis)", "assay": "Test B pre/postemergence", "conditions": "Digitaria sanguinalis; for pest or weed control at 62 g/ha: 62 g ai/ha; for pest or weed control at 250 g/ha: 250 g ai/ha", "method_in_brief": "as §1"}, "corn (Zea mays)": {"system": "corn (Zea mays)", "assay": "Test B pre/postemergence", "conditions": "Zea mays; for Corn plant response rating (crop injury, 0 = no effect, 100 = complete kill) at 250 g/ha: 250 g ai/ha", "method_in_brief": "as §1"}, "[8]": {"system": "giant foxtail (Setaria faberii)", "assay": "Test B pre/postemergence", "conditions": "Setaria faberi; for pest or weed control at 62 g/ha: 62 g ai/ha; for pest or weed control at 250 g/ha: 250 g ai/ha", "method_in_brief": "as §1"}, "[9]": {"system": "pigweed (Amaranthus retroflexus)", "assay": "Test B pre/postemergence", "conditions": "Amaranthus retroflexus; for pest or weed control at 62 g/ha: 62 g ai/ha; for pest or weed control at 250 g/ha: 250 g ai/ha", "method_in_brief": "as §1"}, "[10]": {"system": "barnyardgrass (Echinochloa crus-galli)", "assay": "Test B pre/postemergence", "conditions": "Echinochloa crus-galli; for pest or weed control at 62 g/ha: 62 g ai/ha; for pest or weed control at 250 g/ha: 250 g ai/ha", "method_in_brief": "as §1"}, "[11]": {"system": "blackgrass (Alopecurus myosuroides)", "assay": "Test B postemergence", "conditions": "Alopecurus myosuroides, post-emergence", "method_in_brief": "as §1"}, "wild oat (Avena fatua)": {"system": "wild oat (Avena fatua)", "assay": "Test B postemergence", "conditions": "Avena fatua, post-emergence", "method_in_brief": "as §1"}, "[12]": {"conditions": "pre-emergence, Preemergence, scale 0 to 100 (0 no effect, 100 complete control), read-out: Plant response rating, Wheat"}, "[13]": {"conditions": "pre-emergence, Preemergence, scale 0 to 100 (0 no effect, 100 complete control), read-out: Plant response rating, Barnyardgrass"}}, "note": "Where two headings read alike, the source gives them in different places.", "data": [{"compound": "CCOC(=O)c1nc(C2CC2)nc(NC(C)=O)c1Br", "note": "[Compound 53]", "values": [{"measurement": "plant injury at 62 g/ha", "setting": "[1]; post-emergence, Postemergence, scale 0 to 100 (0 no effect, 100 complete control), read-out: Wheat plant response rating", "value": 30, "unit": "%"}, {"measurement": "plant injury at 250 g/ha", "setting": "[1]; post-emergence, Postemergence, scale 0 to 100, read-out: Plant response rating, Wheat", "value": 60, "unit": "%"}, {"measurement": "plant injury at 62 g/ha", "setting": "[1]; [12]", "value": 0, "unit": "%"}, {"measurement": "plant injury at 250 g/ha", "setting": "[1]; [12]", "value": 40, "unit": "%"}, {"measurement": "pest or weed control at 62 g/ha", "setting": "[2]; post-emergence, Postemergence, scale 0 to 100 (0 no effect, 100 complete control), read-out: Surinam Grass plant response rating", "value": 10, "unit": "%"}, {"measurement": "pest or weed control at 250 g/ha", "setting": "[2]; post-emergence, Postemergence, scale 0 to 100, read-out: Plant response rating, Surinam Grass", "value": 50, "unit": "%"}, {"measurement": "pest or weed control at 250 g/ha", "setting": "[2]; pre-emergence, Preemergence, scale 0 to 100 (0 no effect, 100 complete control), read-out: Plant response rating, Surinam Grass", "value": 30, "unit": "%"}, {"measurement": "pest or weed control at 62 g/ha", "setting": "[2]; pre-emergence, Preemergence, scale 0 to 100, 0 no effect, 100 complete control, read-out: Plant response rating, Surinam Grass", "value": 0, "unit": "%"}, {"measurement": "pest or weed control at 62 g/ha", "setting": "[3]; post-emergence, Postemergence, scale 0 to 100 (0 no effect, 100 complete control), read-out: Velvetleaf plant response rating", "value": 40, "unit": "%"}, {"measurement": "pest or weed control at 250 g/ha", "setting": "[3]; post-emergence, Postemergence, scale 0 to 100, read-out: Plant response rating, Velvetleaf", "value": 80, "unit": "%"}, {"measurement": "pest or weed control at 62 g/ha", "setting": "[3]; pre-emergence, Preemergence, scale 0 to 100, 0 no effect, 100 complete control, read-out: Plant response rating, Velvetleaf", "value": 20, "unit": "%"}, {"measurement": "pest or weed control at 250 g/ha", "setting": "[3]; pre-emergence, Preemergence, scale 0 to 100 (0 no effect, 100 complete control), read-out: Plant response rating, Velvetleaf", "value": 90, "unit": "%"}, {"measurement": "pest or weed control at 62 g/ha", "setting": "[4]; post-emergence, Postemergence, scale 0 to 100 (0 no effect, 100 complete control), read-out: Morningglory plant response rating", "value": 90, "unit": "%"}, {"measurement": "pest or weed control at 250 g/ha", "setting": "[4]; post-emergence, Postemergence, scale 0 to 100, read-out: Plant response rating, Morningglory", "value": 90, "unit": "%"}, {"measurement": "pest or weed control at 62 g/ha", "setting": "[4]; pre-emergence, Preemergence, scale 0 to 100, 0 no effect, 100 complete control, read-out: Plant response rating, Morningglory", "value": 90, "unit": "%"}, {"measurement": "pest or weed control at 250 g/ha", "setting": "[4]; pre-emergence, Preemergence, scale 0 to 100 (0 no effect, 100 complete control), read-out: Plant response rating, Morningglory", "value": 100, "unit": "%"}, {"measurement": "pest or weed control at 62 g/ha", "setting": "[5]; 62 g ai/ha, scale 0 to 100 (0 no effect, 100 complete control), read-out: Lambsquarters plant response rating", "value": 90, "unit": "%"}, {"measurement": "pest or weed control at 250 g/ha", "setting": "[5]; 250 g ai/ha, scale 0 to 100, read-out: Plant response rating, Lambsquarters", "value": 100, "unit": "%"}, {"measurement": "pest or weed control at 62 g/ha", "setting": "[6]; post-emergence, Postemergence, scale 0 to 100 (0 no effect, 100 complete control), read-out: Cocklebur plant response rating", "value": 50, "unit": "%"}, {"measurement": "pest or weed control at 250 g/ha", "setting": "[6]; post-emergence, Postemergence, scale 0 to 100, read-out: Plant response rating, Cocklebur", "value": 90, "unit": "%"}, {"measurement": "pest or weed control at 62 g/ha", "setting": "[6]; pre-emergence, Preemergence, scale 0 to 100, 0 no effect, 100 complete control, read-out: Plant response rating, Cocklebur", "value": 60, "unit": "%"}, {"measurement": "pest or weed control at 250 g/ha", "setting": "[6]; pre-emergence, Preemergence, scale 0 to 100 (0 no effect, 100 complete control), read-out: Plant response rating, Cocklebur", "value": 100, "unit": "%"}, {"measurement": "pest or weed control at 62 g/ha", "setting": "[7]; post-emergence, Postemergence, scale 0 to 100 (0 no effect, 100 complete control), read-out: Crabgrass plant response rating", "value": 0, "unit": "%"}, {"measurement": "pest or weed control at 250 g/ha", "setting": "[7]; post-emergence, Postemergence, scale 0 to 100, read-out: Plant response rating, Crabgrass", "value": 30, "unit": "%"}, {"measurement": "pest or weed control at 62 g/ha", "setting": "[7]; pre-emergence, Preemergence, scale 0 to 100, 0 no effect, 100 complete control, read-out: Plant response rating, Crabgrass", "value": 0, "unit": "%"}, {"measurement": "pest or weed control at 250 g/ha", "setting": "[7]; pre-emergence, Preemergence, scale 0 to 100 (0 no effect, 100 complete control), read-out: Plant response rating, Crabgrass", "value": 50, "unit": "%"}, {"measurement": "plant injury at 62 g/ha", "setting": "corn (Zea mays); post-emergence, Postemergence, 62 g ai/ha, scale 0 to 100 (0 no effect, 100 complete control), read-out: Corn plant response rating", "value": 0, "unit": "%"}, {"measurement": "Corn plant response rating (crop injury, 0 = no effect, 100 = complete kill) at 250 g/ha", "setting": "corn (Zea mays); post-emergence, Postemergence, scale 0 to 100", "value": 70, "unit": "%"}, {"measurement": "Corn plant response rating (crop injury, 0 = no effect, 100 = complete kill) at 62 g/ha", "setting": "corn (Zea mays); pre-emergence, Preemergence, 62 g ai/ha, scale 0 to 100, 0 no effect, 100 complete control", "value": 0, "unit": "%"}, {"measurement": "Corn plant response rating (crop injury, 0 = no effect, 100 = complete kill) at 250 g/ha", "setting": "corn (Zea mays); pre-emergence, Preemergence, scale 0 to 100 (0 no effect, 100 complete control)", "value": 0, "unit": "%"}, {"measurement": "pest or weed control at 62 g/ha", "setting": "[8]; post-emergence, Postemergence, scale 0 to 100 (0 no effect, 100 complete control), read-out: Foxtail, Giant plant response rating", "value": 30, "unit": "%"}, {"measurement": "pest or weed control at 250 g/ha", "setting": "[8]; post-emergence, Postemergence, scale 0 to 100, read-out: Plant response rating, Foxtail, Giant", "value": 70, "unit": "%"}, {"measurement": "pest or weed control at 250 g/ha", "setting": "[8]; pre-emergence, Preemergence, scale 0 to 100 (0 no effect, 100 complete control), read-out: Plant response rating, Foxtail, Giant", "value": 50, "unit": "%"}, {"measurement": "pest or weed control at 62 g/ha", "setting": "[8]; pre-emergence, Preemergence, scale 0 to 100, 0 no effect, 100 complete control, read-out: Plant response rating, Foxtail, Giant", "value": 0, "unit": "%"}, {"measurement": "pest or weed control at 62 g/ha", "setting": "[9]; post-emergence, Postemergence, scale 0 to 100 (0 no effect, 100 complete control), read-out: Pigweed plant response rating", "value": 80, "unit": "%"}, {"measurement": "pest or weed control at 250 g/ha", "setting": "[9]; post-emergence, Postemergence, scale 0 to 100, read-out: Plant response rating, Pigweed", "value": 100, "unit": "%"}, {"measurement": "pest or weed control at 62 g/ha", "setting": "[9]; pre-emergence, Preemergence, scale 0 to 100, 0 no effect, 100 complete control, read-out: Plant response rating, Pigweed", "value": 60, "unit": "%"}, {"measurement": "pest or weed control at 250 g/ha", "setting": "[9]; pre-emergence, Preemergence, scale 0 to 100 (0 no effect, 100 complete control), read-out: Plant response rating, Pigweed", "value": 100, "unit": "%"}, {"measurement": "pest or weed control at 62 g/ha", "setting": "[10]; post-emergence, Postemergence, scale 0 to 100 (0 no effect, 100 complete control), read-out: Barnyardgrass plant response rating", "value": 80, "unit": "%"}, {"measurement": "pest or weed control at 250 g/ha", "setting": "[10]; post-emergence, Postemergence, scale 0 to 100, read-out: Plant response rating, Barnyardgrass", "value": 90, "unit": "%"}, {"measurement": "pest or weed control at 62 g/ha", "setting": "[10]; [13]", "value": 0, "unit": "%"}, {"measurement": "pest or weed control at 250 g/ha", "setting": "[10]; [13]", "value": 70, "unit": "%"}, {"measurement": "pest or weed control at 62 g/ha", "setting": "[11]; 62 g ai/ha, scale 0 to 100 (0 no effect, 100 complete control), read-out: Blackgrass plant response rating", "value": 20, "unit": "%"}, {"measurement": "pest or weed control at 250 g/ha", "setting": "[11]; 250 g ai/ha, scale 0 to 100, read-out: Plant response rating, Blackgrass", "value": 60, "unit": "%"}, {"measurement": "pest or weed control at 62 g/ha", "setting": "wild oat (Avena fatua); 62 g ai/ha, scale 0 to 100 (0 no effect, 100 complete control), read-out: Oat, Wild plant response rating", "value": 30, "unit": "%"}, {"measurement": "pest or weed control at 250 g/ha", "setting": "wild oat (Avena fatua); 250 g ai/ha, scale 0 to 100, read-out: Plant response rating, Oat, Wild", "value": 60, "unit": "%"}]}]}
